These are literature values, as cited in patent publication US20250114332A1 (LABORATORIOS SILANES S.A. DE C.V., priority 2023, published 2025).

Read-outs that look alike come from different tables or passages of the source.

For the data set the following is noted: drug substance.

`CC(=O)Nc1ccc(O)cc1` [Acetaminophen, N-(4-hydroxyphenyl) acetamide]: the Biopharmaceutical classification result is “Group III (high solubility and low permeability)”. The Biopharmaceutical classification entry (listed as acetaminophen) is “group III”.

Consider `Cc1ccc(-c2cc(C(F)(F)F)nn2-c2ccc(S(N)(=O)=O)cc2)cc1` [Celecoxib], for which the Biopharmaceutical classification entry was “Belongs to group II (high permeability and low”.
